{"source": "paper PMC4351682", "about": "“Formononetin inhibits enterovirus 71 replication by regulating COX- 2/PGE2 expression” (Virology Journal, 2015)", "key": {"EV71 (SHZH98)": {"system": "EV71 (SHZH98)", "test": "Time course assay (CPE) in SK-N-SH cells", "assay_type": "cell-based, enterovirus 71", "conditions": "for Reduction of virus-induced CPE, time course: CPE at 48 h", "description": "Figure 1 The chemical structure of formononetin and time course assay. (A) The illustration of the protocol of viral adsorption and treatment with formononetin and pirodavir. SK-N-SH cells were infected with 80 pfu/well of EV71 (SHZH98). Formononetin (9.21 μM) and pirodavir (0.84 μM) was added at the indicated times, respectively. […] The cytopathic effect (CPE) assay was shown. (C) The chemical structure of formononetin.\nThe antiviral activity of formononetin was examined at different time periods before and after viral infection as shown in Figure 1A. Briefly, cells (3 × 10^4 cells/well) were seeded and incubated for 16 h. The cell monolayer was then infected with EV71 of 80 pfu/well. Different concentrations of formononetin were supplemented into cells following the protocol. Cells were then incubated for another 48 h and assayed with CPE assay."}, "EV71 VP1 protein": {"system": "EV71 VP1 protein", "test": "Western blot of EV71 VP1 protein in SK-N-SH cells", "assay_type": "cell-based, enterovirus 71", "conditions": "EV71 SHZH98 infected SK-N-SH cells", "source_text": "(§1) Figure 2 The antiviral effect of formononetin and pirodavir against EV71 in SK-N-SH cells. (A) Formononetin and pirodavir reduced the expression of EV71 VP1 protein in SK-N-SH cells by western blot assay. (B) Formononetin and pirodavir reduced the expression of EV71 VP1 protein in SK-N-SH cells by immunofluorescence assay. Cells were examined using a fluorescence microscopy (×100). (C) Formononetin and pirodavir reduced the expression of EV71 VP1 RNA by one-step qRT-PCR assay. *P < 0.001 ^# P < 0.05.\n(§2) Cells were lysed in the M-PER mammalian protein extraction reagent (Thermo, Rockford, IL) containing halt protease inhibitor single-use cocktail (Thermo). The protein concentration was determined by the BCA reagents (Thermo). About 10 μg proteins were denatured and applied to sodium dodecyl sulfate-polyacrylamide gel electrophoresis (SDS-PAGE). The electrophoresis products were transferred to a polyvinyl idenefluoride (PVDF) film and PVDF membranes were then incubated at room temperature with specific primary antibody. After a standard washing, membranes were incubated with horse radish peroxidase (HRP)-labeled secondary antibody. The assay developed using a chemiluminescent substrate. […]"}, "EV71 VP1 RNA": {"system": "EV71 VP1 RNA", "test": "One-step qRT-PCR of EV71 VP1 RNA in SK-N-SH cells", "assay_type": "cell-based, enterovirus 71", "conditions": "EV71 SHZH98 480 pfu/well, 24 h treatment", "source_text": "as §1\nSK-N-SH cells (9 × 10^5cells/well) were plated into 6-well culture plates for incubation of 16 h. The medium was removed and cells were infected with EV71 (SHZH98) of 480 pfu/well. After 2 h, various concentrations of formononetin were supplemented for incubation of another 24 h. The total RNA of the infected cells was extracted using the RNeasy Mini kit (QIAGEN) according to the manufacturer’s instructions. The one-step qRT-PCR was performed with SuperScript III Platinum SYBR Green One-step RT PCR Kit (Invitrogen) using the ABI 7500 Fast Real-Time PCR system (Applied Biosystems). The mRNA expression of EV71 VP1 was detected with sense primer 5’-[…]-3’ and antisense primer 5’-[…]-3’ targeting a conserved region of the VP1 gene. The β-actin mRNA was detected using sense primers 5’-TGACGGGGT CACCCACA CTGTGCCCATCTA-3’ and antisense primer 5’-CTAGAAGCATTTG CGGTGGACG ATG-3’."}, "p38": {"system": "p38", "test": "Western blot of EV71-induced phosphorylation of p38 in SK-N-SH cells", "assay_type": "cell-based", "conditions": "pretreatment 24 h, formononetin 14.91 μmol/L, pirodavir 1.08 μmol/L, EV71 10 min", "description": "(§3) Figure 3 Formononetin but not pirodavir reduces the phosphorylation of ERK (A), p38 (B), and JNK (C) induced by EV71 infection. SK-N-SH cells (9 × 10^5 cells/well) were plated into 6-well culture plates. The cells were then pretreated with formononetin (14.91 μmol/L) and pirodavir (1.08 μmol/L), respectively. After 24 h, the cells were mock-infected or infected with 4.8 × 10^5 pfu/well of EV71 (SHZH98) for 15 min (A), 10 min (B), and 30 min (C), respectively. The cells were harvested and ERK (A) p-ERK (A), p38 (B), p-p38 (B), JNK (C), and p-JNK (C) were detected by western blot.\nas §2"}, "JNK": {"system": "JNK", "test": "Western blot of EV71-induced phosphorylation of JNK in SK-N-SH cells", "assay_type": "cell-based", "conditions": "pretreatment 24 h, formononetin 14.91 μmol/L, pirodavir 1.08 μmol/L, EV71 30 min", "description": "as §3, §2"}, "COX-2": {"system": "COX-2", "test": "Western blot of EV71-induced COX-2 expression in SK-N-SH cells", "assay_type": "cell-based", "conditions": "formononetin 14.91 μmol/L, pirodavir 1.08 μmol/L, 24 h", "description": "Figure 4 Formononetin could inhibit EV71-induced COX-2 expression and PGE 2 production. (A) Formononetin but not pirodavir can reduce the expression of COX-2 induced by EV71 infection. SK-N-SH cells were mock-infected or infected with 480 pfu/well of EV71 (SHZH98) for 2 h. The cells were then treated with formononetin (14.91 μmol/L) and pirodavir (1.08 μmol/L), respectively, for 24 h. The cells were harvested and EV71-VP1 and COX-2 were examined by western blot. (B) Formononetin but not pirodavir can reduce the release of PGE2 stimulated by EV71 infection. SK-N-SH cells were pretreated with formononetin (14.91 μmol/L) or pirodavir (1.08 μmol/L) for 24 h. The cells were infected with 4.8 × 10^5 pfu/well of EV71 (SHZH98). At 24 h p.i., the culture supernatants were harvested for PGE2 release assay. Cells were lysed in the M-PER mammalian protein extraction reagent (Thermo, Rockford, IL) containing halt protease inhibitor single-use cocktail (Thermo). The protein concentration was determined by the BCA reagents (Thermo). About 10 μg proteins were denatured and applied to sodium dodecyl sulfate-polyacrylamide gel electrophoresis (SDS-PAGE). The electrophoresis products were transferred to a polyvinyl idenefluoride (PVDF) film and PVDF membranes were then incubated at room temperature with specific primary antibody. […]"}}}
{"smiles": "COc1ccc(-c2coc3cc(O)ccc3c2=O)cc1", "note": "[Formononetin]", "values": [{"measurement": "Reduction of virus-induced CPE, time course", "setting": "EV71 (SHZH98); formononetin 9.21 μM added at 24 and 12 h before, and 0 to 6 h after EV71 infection", "result": "able to effectively reduce virus-induced CPE"}, {"measurement": "Reduction of virus-induced CPE, time course", "setting": "EV71 (SHZH98); formononetin 9.21 μM added at −1, 9, and 12 h of EV71 infection", "result": "did not exert this effect"}, {"measurement": "Expression of EV71 VP1 protein (western blot)", "setting": "EV71 VP1 protein", "result": "decrease the expression of VP1 protein in a dose dependent manner"}, {"measurement": "Levels of EV71 RNA (RT-qPCR)", "setting": "EV71 VP1 RNA", "result": "dose-dependently decreased"}, {"measurement": "EV71-stimulated phosphorylation of p38", "setting": "p38", "result": "significantly attenuated"}, {"measurement": "EV71-stimulated phosphorylation of JNK", "setting": "JNK", "result": "significantly attenuated"}, {"measurement": "EV71-stimulated COX-2 expression", "setting": "COX-2", "result": "inhibited"}]}
{"smiles": "CCOC(=O)c1ccc(OCCC2CCN(c3ccc(C)nn3)CC2)cc1", "note": "[Pirodavir, reference compound]", "values": [{"measurement": "Reduction of virus-induced CPE, time course: effective time of addition", "setting": "EV71 (SHZH98); pirodavir 0.84 μM, effective 0–9 h p.i., not before or during the infection", "result": "functioned only after viral infection (0–9 h p.i.)"}, {"measurement": "Expression of EV71 VP1 protein (western blot)", "setting": "EV71 VP1 protein", "result": "decrease"}, {"measurement": "Levels of EV71 RNA (RT-qPCR)", "setting": "EV71 VP1 RNA", "result": "decrease"}, {"measurement": "EV71-stimulated phosphorylation of p38", "setting": "p38", "result": "not"}, {"measurement": "EV71-stimulated phosphorylation of JNK", "setting": "JNK", "result": "not"}, {"measurement": "EV71-stimulated COX-2 expression", "setting": "COX-2", "result": "not"}]}
